Reference: ChEMBL document CHEMBL1124835, “Structure-activity relationships of antineoplastic agents in multidrug resistance” (J Med Chem, 1990)
Numbered stars: 1 amine (or outer) side, 2 acyl side, 3 side chain; on linkers, the order of the positions; unused ones are H or OH. Bridge positions count the residues as written; N and C are the ends. Square brackets hold non-standard residues; d marks the D form. Peptide text beside a SMILES is read from it. I, II: the chains in the order shown. Actinocin(1to9) = Cc1c2oc3c(C)ccc(C(=O)[*:2])c3nc-2c(C(=O)[*:1])c(N)c1=O; NMeV = CN[C@H](C(=O)O)C(C)C; Sar = CNCC(=O)O

Columns and labels:
[1] = test system: CHRC5 cell line
Description: Collateral sensitivity of CHRC5 cells to local anesthetics/steroids as log of ratio of molar concentration of drug inducing 50% growth inhibition in CHO AUXB1 cells to that of CHRC5 cells

[2] = physchem; conditions: octanol/water, pH 7.4
[3] = test system: CHO
Description: Effect on cross resistance of CHO cells resistant to colchicine (CHRC5)

[4] = test system: CCRF-CEM; test: Effect on cross resistance of CCRF-CEM cells resistant to vincristine.; assay type: functional, Homo sapiens
[5] = test system: CHO; test: Effect on cross resistance of chinese hamster ovary CHO cells resistant to colchicine (CHRC5); assay type: functional, Cricetulus griseus
[6] = test system: L1210; test: Cross resistance to the compound expressed as log of ratio of molar concentration of drug inducing 50% inhibition of growth in murine leukemia L1210/R71 and L1210/0 cells; assay type: functional, Mus musculus
[7] = test system: L1210
Description: Cross resistance profile versus L1210/R71 cells.

[8] = test system: L1210; test: Cross resistance to the compound expressed as as log of ratio of molar concentration of drug inducing 50% inhibition of growth in murine leukemia L1210/R71 and L1210/0 cells; assay type: functional, Mus musculus
[9] = test system: CHO; test: Cross resistance of chinese hamster cells resistant to actinomycin D as log of ratio of molar concentration of compound inducing 50% inhibition of growth in resistant and sensitive cells; assay type: functional, Cricetulus griseus
[10] = octanol/water, pH 7.4
[11] = test system: CHRC5 cell line; assay type: functional, Cricetulus griseus
Description: Effect on collateral sensitivity of CHRC5 cells to local anesthetics/steroids.

Row | Molecule | logD [2] | Log CR [7] | other results
1 | CCN(CC)CCOC(=O)c1ccc(N)cc1 [PROCAINE] | 0.3 | – | Log sensitivity [1]: 0.4
2 | COc1cccc2c1C(=O)c1c(O)c3c(c(O)c1C2=O)C[C@@](O)(C(=O)CO)C[C@@H]3O[C@H]1C[C@H](N)[C@H](O)[C@H](C)O1 [DOXORUBICIN] | 0.1 | – | Log CR [3]: 1.4; Log CR [4]: 1.46
3 | C[n+]1c2cc(N)ccc2cc2ccc(N)cc21.[Cl-] [EUFLAVINE] | 1.6 | – | Log CR [5]: 0.84
4 | COc1ccc(OC)c(Cc2cnc3nc(N)nc(N)c3c2C)c1 [PIRITREXIM] | 1.77 | – | Log CR [6]: 1.89
5 | CC(=O)c1cccc(N2C(N)=NC(N)=NC2(C)C)c1 | -3.55 | 2.2 | –
6 | Cc1c2oc3c(C)ccc(C(=O)N[C@@H]4C(=O)N[C@H](C(C)C)C(=O)N5CCC[C@H]5C(=O)N(C)CC(=O)N(C)[C@@H](C(C)C)C(=O)O[C@@H]4C)c3nc-2c(C(=O)N[C@@H]2C(=O)N[C@H](C(C)C)C(=O)N3CCC[C@H]3C(=O)N(C)CC(=O)N(C)[C@@H](C(C)C)C(=O)O[C@@H]2C)c(N)c1=O [DACTINOMYCIN] (I: T[dV]P[Sar][NMeV] / II: T[dV]P[Sar][NMeV]; ester I:1-I:C, II:1-II:C; linker I:N-II:N via Actinocin(1to9)) | 3.21 | 0.12 | –
7 | C[N+]1(C)CCC(OC(=O)C(c2ccccc2)c2ccccc2)CC1.[I-] [4-DAMP] | 2.64 | 1.63 | –
8 | C=C1[C@@H](C)[C@H]2[C@H](Cc3ccccc3)NC(=O)[C@]23OC(=O)/C=C/[C@H](O)CCC[C@@H](C)C/C=C/[C@H]3[C@@H]1O [CYTOCHALASIN B] | 3.37 | – | Log CR [3]: 1.04
9 | CCc1nc(N)nc(N)c1-c1ccc(Cl)c(Cl)c1 [ETOPRINE] | 2.93 | – | Log CR [8]: 1.69
10 | CC(C)NCC(O)COc1cccc2ccccc12 (stereo unspecified) [PROPRANOLOL] | – | – | Log sensitivity [1]: 0.7
11 | Sc1ncnc2nc[nH]c12 [MERCAPTOPURINE ANHYDROUS] | 0.01 | – | Log CR [6]: 0.6; Log CR [9]: -0.3
12 | CCCCNc1ccc(C(=O)OCCN(C)C)cc1 [TETRACAINE] | – | – | Log sensitivity [1]: 0.7; logD [10]: 1
13 | O=c1[nH]c(=O)n([C@H]2C[C@H](O)[C@@H](CO)O2)cc1Br [BROXURIDINE] | -0.29 | – | –
14 | BLEOMYCIN | – | – | logD [10]: -2.38
15 | CC(=O)[C@H]1CC[C@H]2[C@@H]3CCC4CC(=O)CC[C@]4(C)[C@H]3CC[C@]12C (stereo partly specified) | 3.99 | – | Log sensitivity [11]: 1
16 | O=C(O)CCCc1ccc(N(CCCl)CCCl)cc1 [CHLORAMBUCIL] | 1.47 | – | Log CR [3]: 0.3
17 | CCCC[N+](CCCC)(CCCC)CCCC.[Br-] [TETRABUTYLAMMONIUM BROMIDE] | -3 | – | Log sensitivity [11]: -0.84
18 | CC1(C)N=C(N)N=C(N)N1c1ccccc1 | -3 | 2.18 | –
19 | CC(C)[C@@H]1NC(=O)[C@H](C)OC(=O)[C@@H](C(C)C)NC(=O)[C@@H](C(C)C)OC(=O)[C@H](C(C)C)NC(=O)[C@H](C)OC(=O)[C@@H](C(C)C)NC(=O)[C@@H](C(C)C)OC(=O)[C@H](C(C)C)NC(=O)[C@H](C)OC(=O)[C@@H](C(C)C)NC(=O)[C@@H](C(C)C)OC1=O [VALINOMYCIN] | 3.24 | 0.59 | –
20 | O=c1[nH]cc(F)c(=O)[nH]1 [FLUOROURACIL] | -0.89 | -0.04 | Log CR [3]: 0
21 | O=P1(N(CCCl)CCCl)NCCCO1 (stereo unspecified) [CYCLOPHOSPHAMIDE ANHYDROUS] | 0.63 | – | Log sensitivity [11]: 0.52
22 | CO[C@H](C(=O)[C@@H](O)[C@@H](C)O)[C@@H]1Cc2cc3cc(O[C@H]4C[C@@H](O[C@H]5C[C@@H](O)[C@H](O)[C@@H](C)O5)[C@H](O)[C@@H](C)O4)c(C)c(O)c3c(O)c2C(=O)[C@H]1O[C@H]1C[C@@H](O[C@H]2C[C@@H](O[C@H]3C[C@](C)(O)[C@H](O)[C@@H](C)O3)[C@@H](O)[C@@H](C)O2)[C@H](O)[C@@H](C)O1 [PLICAMYCIN] | -0.25 | – | –
23 | COc1cc2cc(c1Cl)N(C)C(=O)C[C@H](OC(=O)[C@H](C)N(C)C(C)=O)[C@]1(C)O[C@H]1[C@H](C)[C@@H]1C[C@@](O)(NC(=O)O1)[C@H](OC)/C=C/C=C(\C)C2 [MAYTANSINE] | – | 1.23 | Log CR [4]: 2.85
24 | CC[C@H]1CN2CCc3cc(OC)c(OC)cc3[C@@H]2C[C@@H]1C[C@H]1NCCc2cc(OC)c(OC)cc21 [EMETINE] | 3.24 | – | Log CR [5]: 1.46
25 | Nc1ncn([C@@H]2O[C@H](CO)[C@@H](O)[C@H]2O)c(=O)n1 [AZACITIDINE] | -2.17 | 1.54 | –
26 | CC1(C)N=C(N)N=C(N)N1c1cccc(O)c1 | -3.67 | 1.86 | –
